Source: patent publication US20130296432A1, “BENZOIC ACID-ENRICHED PLANT EXTRACTS AND USE THEREOF” (EPC (BEIJING) NATURAL PRODUCTS CO., LTD., priority 2012, published 2013)

System: Aspergillus niger
Assay: Bacteria inhibiting effect, dilution-plate method (colony count)
Type: cell-based
Conditions: 27° C., 72 h
Protocol: • 1. […] Dilution-plate method The preservatives were dissolved with sterilized water and diluted to the concentrations in Table 1. 1 ml of each sample was added into a sterilized Petri dish, and then 1 ml bacterial suspension was added into each dish. The sample and the bacterial suspension were well mixed in the dish and 20 ml sterilized culture medium was added into the dish at ≦45° C., such that the final concentration of the preservatives is as described in Table 1. After solidification, the dish was incubated in a constant temperature incubator at 27° C. for 72 h, and the number of the colony was then counted.

[1] = final concentration of the preservative 0.01 % (extract calculated as benzoic acid)
[2] = final concentration of the preservative 0.02 % (extract calculated as benzoic acid)
[3] = final concentration of the preservative 0.04 % (extract calculated as benzoic acid)

`O=C(O)c1ccccc1` [Benzoic acid] gave an Inhibition [1] of 0%, a colony number [1] of 49 cfu/dish and an Inhibition [2] of 40%. The colony number [2] was 32 cfu/dish, the Inhibition [3] was 62% and the colony number [3] was 20 cfu/dish.
`C/C=C/C=C/C(=O)O` [Sorbic acid] was tested, and the Inhibition [1] was 0%, the colony number [1] was 50 cfu/dish and the Inhibition [2] was 38%. For the same compound, the colony number [2] was 33 cfu/dish.
